Measured values from patent publication US20250221435A1, “Food Protein-Derived Peptides as Bitter Taste Blockers” (University of Manitoba, priority 2018, published 2025).
Several values for one entry are separate records, joined by “and”; a condition that tells them apart may be missing. Equal values may be shown once. Entries after “also recorded” stand apart in the source; their conditions may differ. Read-outs that look alike come from different tables or passages of the source.

Assays:
[1] = Estimation of bitter scores by electronic-tongue (e-tongue); settings: 1 mM quinine mixed with 5 mg/mL hydrolysate or 59 nM BCML
Experimental: Estimation of bitter scores by electronic-tongue (e-tongue). Each BPH was dissolved in distilled water to give 0.5, 1.0, 2.5, 5.0, and 10.0 mg/mL concentrations followed by filtration first through a 0.45 μm filter disc and then a 0.2 μm filter. Bitter scores of filtered BPH solutions (20 mL) were evaluated using the Astree II E-tongue system (Alpha M.O.S., Toulouse, France). This system is a completely automated taste analyzer equipped with seven sensors, BD, EB, JA, JG, KA, OA, and JE, based on the ChemFET technology (Chemical modified Field Effect Transistor) to analyze liquid samples. Firstly, 0.01 M HCl was used to condition and calibrate sensors and the reference electrode repeatedly until stable signals were obtained for all seven sensors with minimal or no noise and drift. […] Thereafter, the PLS bitterness standard model was constructed using several bitter taste compounds with known bitter taste scores determined from human panelists, including 0.24 mM and 2.36 mM caffeine, 0.03 mM and 0.12 mM quinine, 0.44 mM and 0.88 mM prednisolone, as well as 3.31 mM and 19.85 mM paracetamol. […] The 5 mg/ml sample was determined as the maximum strength useful to evaluate BPH bitterness intensity and this concentration was subsequently used to obtain bitter scores. […]

T2R4 [2] = target: T1, T2R4 (Homo sapiens, UniProt Q9NYW5); settings: known T2R4 bitter taste blocker, positive control; read-out: IC50 for quinine of known T2R4 bitter taste blocker; cited from earlier work
T1 construct: expressed in transfected cells
T1 sequence (Q9NYW5 1-299): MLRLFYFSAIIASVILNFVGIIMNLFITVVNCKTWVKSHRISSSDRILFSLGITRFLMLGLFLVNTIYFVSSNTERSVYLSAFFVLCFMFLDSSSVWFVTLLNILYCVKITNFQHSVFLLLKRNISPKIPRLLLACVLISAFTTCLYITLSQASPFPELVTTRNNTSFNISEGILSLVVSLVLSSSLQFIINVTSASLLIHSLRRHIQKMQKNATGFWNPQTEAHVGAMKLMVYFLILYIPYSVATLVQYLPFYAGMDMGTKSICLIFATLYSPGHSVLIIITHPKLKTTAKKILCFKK

T2R4 [3] = target: T1, T2R4; experiment: Calcium mobilization in T2R4-expressing HEK 293T cell system; format: cell-based; settings: for blocking of quinine-dependent calcium release: 1 mM quinine plus 5 mg/mL fraction or 1 mM synthesized peptide
Experimental: Determination of cellular calcium mobilization. Determination of the potential bitter taste-activating or blocking activity of BPH was carried out by measuring intracellular Ca^2+ mobilization using Fluo-4 NW calcium assay kit as previously described.^3 Stable transfected HEK293 cells expressing T2R4 and G-alpha 16/44 or HEK293T cells expressing only G-alpha 16/44 were used as experimental and negative control group, respectively. Around 1×10^5 cells/well plated in the 96-well BD-falcon biolux plate and then incubated at 37° C. in a CO2 incubator for 16 h. After incubation, the culture medium was substituted (for 40 min at 37° C. in the CO2 incubator followed by 30 min incubation at room temperature) with Fluo-4 NW dye solution, which contained lyophilized dye in 10 mL of assay buffer (1× Hanks' balanced salt solution, 20 mM HEPES) and 100 μL 2.5 mM probenecid added to prevent dye leakage from cytosol. Calcium mobilization was measured in terms of relative fluorescence units (RFUs) using a Flexstation-3 microplate reader (Molecular Devices, CA, USA) at 525 nm, following 494 nm excitation. […] The basal intracellular calcium levels were measured for the first 20 s followed by addition of appropriate concentration of ligands for another 120 s. To get the absolute RFUs, the basal RFU before adding the ligand, which was labeled minimum value (Min) was deducted from the maximum RFU (Max) obtained after stimulating with the ligand (absolute RFUs=Max−Min). […] Data were collected from two independent experiments, each done in triplicate.

T2R14 = target: T2, T2R14 (Homo sapiens, UniProt Q9NYV8); experiment: Peptides and agonist competition calcium mobilization assays on T2R14; format: cell-based; settings: for IC50: IC50 for T2R14 activated by diphenhydramine, diphenhydramine 0.5 mM, peptide 0.015 mM-1 mM, HEK293T cells stably expressing T2R14; for blocking of diphenhydramine-dependent T2R14 activation: competition calcium mobilization assay
T2 construct: expressed in transfected cells
T2 sequence (Q9NYV8 1-317): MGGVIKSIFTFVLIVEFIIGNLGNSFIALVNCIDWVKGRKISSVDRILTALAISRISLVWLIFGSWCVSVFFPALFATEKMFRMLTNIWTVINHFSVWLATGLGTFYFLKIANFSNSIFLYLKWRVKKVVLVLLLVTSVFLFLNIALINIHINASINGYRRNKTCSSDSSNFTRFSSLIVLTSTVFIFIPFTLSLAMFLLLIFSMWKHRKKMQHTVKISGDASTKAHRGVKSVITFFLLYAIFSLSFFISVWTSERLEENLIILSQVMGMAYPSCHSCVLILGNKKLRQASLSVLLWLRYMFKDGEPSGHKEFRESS
Experimental: FIG. 9. Peptides and agonist competition calcium mobilization assays on T2R14. HEK293T cells stably expressing T2R14 were treated with the agonist diphenhydramine (0.5 mM) and with increasing concentrations of Peptide 4 (ETSARHL) and Peptide 5 (AGDDAPRAVF) ranging from 0.015 mM-1 mM. Changes in intracellular calcium were measured (ΔRFUs), and IC50 values were calculated using GraphPad Prism 4.0. […] Data were collected from a minimum of two independent experiments carried out in triplicate.
To generalize the applicability of these peptides in blocking other T2Rs, we choose T2R14 as our next target.
Determination of cellular calcium mobilization. Determination of the potential bitter taste-activating or blocking activity of BPH was carried out by measuring intracellular Ca^2+ mobilization using Fluo-4 NW calcium assay kit as previously described.^3 Stable transfected HEK293 cells expressing T2R4 and G-alpha 16/44 or HEK293T cells expressing only G-alpha 16/44 were used as experimental and negative control group, respectively. Around 1×10^5 cells/well plated in the 96-well BD-falcon biolux plate and then incubated at 37° C. in a CO2 incubator for 16 h. After incubation, the culture medium was substituted (for 40 min at 37° C. in the CO2 incubator followed by 30 min incubation at room temperature) with Fluo-4 NW dye solution, which contained lyophilized dye in 10 mL of assay buffer (1× Hanks' balanced salt solution, 20 mM HEPES) and 100 μL 2.5 mM probenecid added to prevent dye leakage from cytosol. Calcium mobilization was measured in terms of relative fluorescence units (RFUs) using a Flexstation-3 microplate reader (Molecular Devices, CA, USA) at 525 nm, following 494 nm excitation. Based on the e-tongue data, BPH at 5 mg/mL, BCML at 59 nM and agonist quinine at 1 mM were used individually or in combination with peptides to determine activation of T2R4. BPH or BCML was then mixed with quinine (1 mM final concentration) to obtain 5 mg/mL or 59 nM, respectively and used to determine inactivation of T2R4. The basal intracellular calcium levels were measured for the first 20 s followed by addition of appropriate concentration of ligands for another 120 s. To get the absolute RFUs, the basal RFU before adding the ligand, which was labeled minimum value (Min) was deducted from the maximum RFU (Max) obtained after stimulating with the ligand (absolute RFUs=Max−Min). Next, the signals from the negative control group cells were deducted from the observed signal of experimental group cells to give ΔRFUs. Data were collected from two independent experiments, each done in triplicate. PRISM software version 4.03 (GraphPad Software, San Diego) was used for data analysis.

[4] = 10 mM quinine solution; cited from earlier work

NCCCC[C@@H](C(=O)O)N(CC(=O)O)CC(=O)O [BCML, Nα,Nα-bis(carboxymethyl)-I-lysine]
suppression of quinine bitterness intensity (e-tongue) [1]: most decrease | IC50 (T2R4 [2]): 0.059 µM

AAMY: peptide AAMY identified from CHYMOTRYPSIN hydrolysate fraction CH-F4-5, chemically synthesized (synthesized bitter taste blocker)
blocking of quinine-dependent calcium release (T2R4 [3]; T2R4-expressing HEK 293T cells): less calcium mobilization; also recorded: suppressed quinine-dependent calcium release

AAYM: peptide AAYM identified from CHYMOTRYPSIN hydrolysate fraction CH-F4-5, chemically synthesized (synthesized bitter taste blocker)
blocking of quinine-dependent calcium release (T2R4 [3]; T2R4-expressing HEK 293T cells): suppressed quinine-dependent calcium release

CC(C)[C@H](NC(=O)[C@H](C)NC(=O)[C@H](CCCNC(=N)N)NC(=O)[C@@H]1CCCN1C(=O)[C@H](C)NC(=O)[C@H](CC(=O)O)NC(=O)[C@H](CC(=O)O)NC(=O)CNC(=O)[C@H](C)N)C(=O)N[C@@H](Cc1ccccc1)C(=O)O [AGDDAPRAVF]
IC50 (T2R4 [3]): 85 µM | blocking of quinine-dependent calcium release (T2R4 [3]; T2R4-expressing HEK 293T cells): less calcium mobilization; also recorded: most effective blocker; also recorded: suppressed quinine-dependent calcium release | IC50 (T2R14): ~100 µM and 118 µM | blocking of diphenhydramine-dependent T2R14 activation (T2R14): effective in blocking

Nc1ncnc2c1ncn2[C@H]1C[C@H](O)[C@@H](COP(=O)(O)OP(=O)(O)OP(=O)(O)O)O1 [dATP, 2-deoxyadenosine triphosphate]
reduction in bitterness of quinine solution [4]: 60%

C=C[C@H]1C[N@@]2CC[C@H]1C[C@H]2[C@H](O)c1ccnc2ccc(OC)cc12 [Quinine, reference compound]
calcium mobilization (ΔRFU), sample alone (T2R4 [3]; T2R4-expressing HEK 293T cells, hydrolysates 5 mg/mL, quinine 1 mM, peptides 1 mM): highest activity

CC(C)C[C@H](NC(=O)[C@H](Cc1c[nH]cn1)NC(=O)[C@H](CCCNC(=N)N)NC(=O)[C@H](C)NC(=O)[C@H](CO)NC(=O)[C@@H](NC(=O)[C@@H](N)CCC(=O)O)[C@@H](C)O)C(=O)O [ETSARHL]
blocking of quinine-dependent calcium release (T2R4 [3]; T2R4-expressing HEK 293T cells): less calcium mobilization; also recorded: suppressed quinine-dependent calcium release; also recorded: most effective | IC50 (T2R14): ~100 µM and 121 µM | blocking of diphenhydramine-dependent T2R14 activation (T2R14): effective in blocking

cytosine monophosphate [CMP]
reduction in bitterness of quinine solution [4]: 40%
